Experimental data reported in patent US8501755B2, “Tetrahydropyridothienopyrimidine compounds and methods of use thereof” (Bayer Intellectual Property GmbH, priority 2006, dated 2013).

How the values were obtained:
Assay type in all cases: cell-based
A431 cells = test: In vitro tumor cell proliferation assay (Cell Titer-Glo) in A431 cells; details: Homo sapiens, A-431, 72 h, A431 human epidermoid carcinoma overexpressing HER1; 72 hours exposure; read-out: IC50, activities in A431 cell lines
Text: (§1) The tumor cell proliferation assay used to test the compounds of the present invention involves a readout called Cell Titer-Glow® Luminescent Cell Viability Assay developed by Promega® (Cunningham, BA “A Growing Issue: Cell Proliferation Assays, Modern kits ease quantification of cell growth” The Scientist 2001, 15(13), 26, and Crouch, S P et al., “The use of ATP bioluminescence as a measure of cell proliferation and cytotoxicity” Journal of Immunological Methods 1993, 160, 81-88), that measures inhibition of cell proliferation. Generation of a luminescent signal corresponds to the amount of ATP present, which is directly proportional to the number of metabolically active (proliferating) cells. A431 cells [human epidermoid carcinoma, ATCC # HTB-20, overexpressing HER1 (EGFR, ErbB1)] and N87 [human gastric carcinoma, ATCC # CRL-1555, overexpressing HER2 (ErbB2) and HER1 (EGFR, ErbB1)] were plated at a density of 2.5×10^3 cells/well in 96 well black-clear bottom tissue culture plates in RPMI media with 10% Fetal Bovine Serum and incubated at 37° C. Twenty-four hours later, test compounds are added at a final concentration range from as high 100 μm to as low […] depend on the activities of the tested compounds in serial dilutions at a final DMSO concentration of 0.1%. Cells were incubated for 72 hours at 37° C. in complete growth media after addition of the test compound. After 72 hours of drug exposure, the plates were equilibrated to room temperature for approximately 30 min. Then, using a Promega Cell Titer Glo Luminescent® assay kit, lysis buffer containing 100 microliters of the enzyme luciferase and its substrate, luciferin mixture, was added to each well. The plates were mixed for 2 min on orbital shaker to ensure cell lysis and incubated for 10 min at room temperature to stabilize luminescence signal. The samples were read on VICTOR2 using Luminescence protocol, and analyzed with Analyze5 software to generate IC50 values.

N87 = test: In vitro tumor cell proliferation assay (Cell Titer-Glo) in N87 cells; details: N87 human gastric carcinoma overexpressing HER2 and HER1; 72 hours exposure; read-out: IC50, activities in N87 cell lines
Text: as §1

H1975 cells = test: In vitro tumor cell proliferation assay (Cell Titer-Glo) in H1975 cells; details: NCI-H1975; H1975 human NSCLC expressing mutant HER1 (L858R,T790M); 72 hours exposure; read-out: IC50, activities in H 1975 cell lines
Text: The tumor cell proliferation assay used to test the compounds of the present invention involves a readout called Cell Titer-Glow® Luminescent Cell Viability Assay developed by Promega® (Cunningham, BA “A Growing Issue: Cell Proliferation Assays, Modern kits ease quantification of cell growth” The Scientist 2001, 15(13), 26, and Crouch, S P et al., “The use of ATP bioluminescence as a measure of cell proliferation and cytotoxicity” Journal of Immunological Methods 1993, 160, 81-88), that measures inhibition of cell proliferation. Generation of a luminescent signal corresponds to the amount of ATP present, which is directly proportional to the number of metabolically active (proliferating) cells.
H1975 cells [human non small cell lung carcinoma, ATCC # CRL-5908, expressing mutant HER1 [(EGFR, ErbB1)(L858R,T790M] were plated at a density of 3×10^3 cells/well in 96 well black-clear bottom tissue culture plates in RPMI media with 10% Fetal Bovine Serum and incubated at 37° C. Twenty-four hours later, test compounds are added at a final concentration range from as high 10 uM to as low 64 pM depending on the activities of the tested compounds in serial dilutions at a final DMSO concentration of 0.1%. Cells were incubated for 72 hours at 37° C. in complete growth media after addition of the test compound. After 72 hours of drug exposure, the plates were equilibrated to room temperature for approximately 30 min. Then, using a Promega Cell Titer Glo Luminescent® assay kit, lysis buffer containing 100 microliters of the enzyme luciferase and its substrate, luciferin mixture, was added to each well. The plates were mixed for 2 min on orbital shaker to ensure cell lysis and incubated for 10 min at room temperature to stabilize luminescence signal. The samples were read on VICTOR2 using Luminescence protocol, and analyzed with Analyze5 software to generate IC50 values.

Structure (SMILES)	IC50 (A431 cells) [nM]	IC50 (N87) [nM]	IC50 (H1975 cells) [nM]
CN(C)C/C=C/C(=O)N1CCc2c(sc3ncnc(Nc4ccc(OCc5cccc(F)c5)c(Cl)c4)c23)C1 [Example 11, N-{3-chloro-4-[(3-fluorobenzyl)oxy]phenyl}-7-[(2E)-4-(dimethylamino)but-2-enoyl]-5,6,7,8-tetrahydropyrido[4′,3′:4,5]thieno[2,3-d]pyrimidin-4-amine]	< 200	< 200	1000 to 10000
O=C(/C=C/CN1CCCCC1)N1CCc2c(sc3ncnc(Nc4ccc(F)c(Cl)c4)c23)C1 [Example 12, N-(3-chloro-4-fluorophenyl)-7-[(2E)-4-piperidin-1-ylbut-2-enoyl]-5,6,7,8-tetrahydropyrido[4′,3′:4,5]thieno[2,3-d]pyrimidin-4-amine]	< 200	< 200	200 to 1000
CCN(CC)C/C=C/C(=O)N1CCc2c(sc3ncnc(Nc4ccc(OCc5cccc(F)c5)c(Cl)c4)c23)C1 [Example 13, N-{3-chloro-4-[(3-fluorobenzyl)oxy]phenyl}-7-[(2E)-4-(diethylamino)but-2-enoyl]-5,6,7,8-tetrahydropyrido[4′,3′:4,5]thieno[2,3-d]pyrimidin-4-amine]	< 200	< 200	1000 to 10000
CN1CCN(C/C=C/C(=O)N2CCc3c(sc4ncnc(Nc5ccc(OCc6cccc(F)c6)c(Cl)c5)c34)C2)CC1 [Example 14, N-{3-chloro-4-[(3-fluorobenzyl)oxy]phenyl}-7-[(2E)-4-(4-methylpiperazin-1-yl)but-2-enoyl]-5,6,7,8-tetrahydropyrido[4′,3′:4,5]thieno[2,3-d]pyrimidin-4-amine]	< 200	< 200	1000 to 10000
C#Cc1cccc(Nc2ncnc3sc4c(c23)CCN(C(=O)/C=C/CN2CCOCC2)C4)c1 [Example 15, N-(3-ethynylphenyl)-7-[(2E)-4-morpholin-4-ylbut-2-enoyl]-5,6,7,8-tetrahydropyrido[4′,3′:4,5]thieno[2,3-d]pyrimidin-4-amine]	< 200	< 200	1000 to 10000
C#Cc1cccc(Nc2ncnc3sc4c(c23)CCN(C(=O)/C=C/CN(CC)CC)C4)c1 [Example 16, 7-[(2E)-4-(diethylamino)but-2-enoyl]-N-(3-ethynylphenyl)-5,6,7,8-tetrahydropyrido[4′,3′:4,5]thieno[2,3-d]pyrimidin-4-amine]	< 200	< 200	200 to 1000
C#Cc1cccc(Nc2ncnc3sc4c(c23)CCN(C(=O)/C=C/CN(C)C)C4)c1 [Example 17, 7-[(2E)-4-(dimethylamino)but-2-enoyl]-N-(3-ethynylphenyl)-5,6,7,8-tetrahydropyrido[4′,3′:4,5]thieno[2,3-d]pyrimidin-4-amine]	< 200	< 200	200 to 1000
O=C(/C=C/CN1CCCCC1)N1CCc2c(sc3ncnc(Nc4ccc(OCc5cccc(F)c5)c(Cl)c4)c23)C1 [Example 19, N-{3-chloro-4-[(3-fluorobenzyl)oxy]phenyl}-7-[(2E)-4-piperidin-1-ylbut-2-enoyl]-5,6,7,8-tetrahydropyrido[4′,3′: 4,5]thieno[2,3-d]pyrimidin-4-amine]	< 200	< 200	1000 to 10000
C#Cc1cccc(Nc2ncnc3sc4c(c23)CCN(C(=O)/C=C/CN2CCCCC2)C4)c1 [Example 20, N-(3-ethynylphenyl)-7-[(2E)-4-piperidin-1-ylbut-2-enoyl]-5,6,7,8-tetrahydropyrido [4′,3′:4,5]thieno[2,3-d]pyrimidin-4-amine]	< 200	< 200	200 to 1000
O=C(/C=C/CN1CCCC1)N1CCc2c(sc3ncnc(Nc4ccc(F)c(Cl)c4)c23)C1 [Example 21, N-(3-chloro-4-fluorophenyl)-7-[(2E)-4-pyrrolidin-1-ylbut-2-enoyl]-5,6,7,8-tetrahydropyrido [4′,3′:4,5]thieno[2,3-d]pyrimidin-4-amine]	< 200	< 200	< 200
C=CC(=O)N1CCc2c(sc3ncnc(Nc4ccc(F)c(Cl)c4)c23)C1 [Example 22, 7-acryloyl-N-(3-chloro-4-fluorophenyl)-5,6,7,8-tetrahydropyrido [4′,3′:4,5]thieno[2,3-d]pyrimidin-4-amine]	< 200	< 200	200 to 1000
C/C=C/C(=O)N1CCc2c(sc3ncnc(Nc4ccc(F)c(Cl)c4)c23)C1 [Example 23, 7-[(2E)-but-2-enoyl]-N-(3-chloro-4-fluorophenyl)-5,6,7,8-tetrahydropyrido [4′,3′:4,5]thieno[2,3-d]pyrimidin-4-amine]	1000 to 10000	200 to 5000	1000 to 10000
O=C(/C=C/CN1CCCC1)N1CCc2c(sc3ncnc(Nc4ccc(OCc5ccccn5)c(Cl)c4)c23)C1 [Example 24, N-[3-chloro-4-(pyridin-2-ylmelhoxy)phenyl]-7-[(2E)-4-pyrrolidin-1-ylbut-2-enoyl]-5,6,7,8-tetrahydropyrido [4′,3′:4,5]thieno[2,3-d]pyrimidin-4-amine]	200 to 1000	< 200	< 200
O=C(/C=C/CN1CCCC1)N1CCc2c(sc3ncnc(Nc4ccc(OCc5cccc(F)c5)c(Cl)c4)c23)C1 [Example 25, N-{3-chloro-4-[(3-fluorobenzyl)oxy]phenyl}-7-[(2E)-4-pyrrolidin-1-ylbut-2-enoyl]-5,6,7,8-tetrahydropyrido [4′,3′:4,5]thieno[2,3-d]pyrimidin-4-amine]	200 to 1000	< 200	200 to 1000
C#Cc1cccc(Nc2ncnc3sc4c(c23)CCN(C(=O)/C=C/CN2CCCC2)C4)c1 [Example 26, N-(3-ethynylphenyl)-7-[(2E)-4-pyrrolidin-1-ylbut-2-enoyl]-5,6,7,8-tetrahydropyrido [4′,3′:4,5]thieno[2,3-d]pyrimidin-4-amine]	< 200	< 200	< 200
C#Cc1cccc(Nc2ncnc3sc4c(c23)CCN(C(=O)C=C)C4)c1 [Example 27, 7-acryloyl-N-(3-ethynylphenyl)-5,6,7,8-tetrahydropyrido [4′,3′:4,5]thieno[2,3-d]pyrimidin-4-amine]	1000 to 10000	< 200	200 to 1000
C=CC(=O)N1CCc2c(sc3ncnc(Nc4ccc(OCc5ccccn5)c(Cl)c4)c23)C1 [Example 28]	1000 to 10000	< 200	< 200
CN1CCC=C(C(=O)N2CCc3c(sc4ncnc(Nc5ccc(F)c(Cl)c5)c34)C2)C1 [Example 29, N-(3-chloro-4-fluorophenyl)-7-[(1-methyl-1,2,5,6-tetrahydropyridin-3-yl)carbonyl]5,6,7,8-tetrahydropyrido [4′,3′:4,5]thieno[2,3-d]pyrimidin-4-amine]	1000 to 10000	200 to 5000	1000 to 10000
CN1CCC=C(C(=O)N2CCc3c(sc4ncnc(Nc5ccc(OCc6ccccn6)c(Cl)c5)c34)C2)C1 [Example 30, N-[3-chloro-4-(pyridin-2-ylmethoxy)phenyl]-7-[(1-methyl-1,2,5,6-tetrahydropyridin-3-yl)carbonyl]-5,6,7,8-tetrahydropyrido [4′,3′:4,5]thieno[2,3-d]pyrimidin-4-amine]	1000 to 10000	200 to 5000	1000 to 10000
